Values of other authors as cited in patent US6693094B2, “Biguanide and sulfonylurea formulations for the prevention and treatment of insulin resistance and type 2 diabetes mellitus” (Chrono RX LLC, priority 2001, dated 2004).

Columns and labels:
[1] = in vivo
pancreatic islets = details: islets exposed to IL-1 beta
[2] = in vivo; remark: listed apart in the source
sulfonylurea receptor = sulfonylurea receptor (Homo sapiens, UniProt Q09428); details: sulfonylurea receptors of the β-cell membrane
[3] = in vivo; remark: listed apart in the source
[4] = system: insulin secreting β-cells; details: hyperglycemic conditions
[5] = system: insulin-resistant type 2 diabetes patients
[6] = system: obese type 2 diabetes patients; details: 600 mg/day, used alone
[7] = system: patients with essential hypertension and coronary artery disease; details: 60 mg twice daily for 8 weeks, oral

Sequence of sulfonylurea receptor (Q09428 whole entry): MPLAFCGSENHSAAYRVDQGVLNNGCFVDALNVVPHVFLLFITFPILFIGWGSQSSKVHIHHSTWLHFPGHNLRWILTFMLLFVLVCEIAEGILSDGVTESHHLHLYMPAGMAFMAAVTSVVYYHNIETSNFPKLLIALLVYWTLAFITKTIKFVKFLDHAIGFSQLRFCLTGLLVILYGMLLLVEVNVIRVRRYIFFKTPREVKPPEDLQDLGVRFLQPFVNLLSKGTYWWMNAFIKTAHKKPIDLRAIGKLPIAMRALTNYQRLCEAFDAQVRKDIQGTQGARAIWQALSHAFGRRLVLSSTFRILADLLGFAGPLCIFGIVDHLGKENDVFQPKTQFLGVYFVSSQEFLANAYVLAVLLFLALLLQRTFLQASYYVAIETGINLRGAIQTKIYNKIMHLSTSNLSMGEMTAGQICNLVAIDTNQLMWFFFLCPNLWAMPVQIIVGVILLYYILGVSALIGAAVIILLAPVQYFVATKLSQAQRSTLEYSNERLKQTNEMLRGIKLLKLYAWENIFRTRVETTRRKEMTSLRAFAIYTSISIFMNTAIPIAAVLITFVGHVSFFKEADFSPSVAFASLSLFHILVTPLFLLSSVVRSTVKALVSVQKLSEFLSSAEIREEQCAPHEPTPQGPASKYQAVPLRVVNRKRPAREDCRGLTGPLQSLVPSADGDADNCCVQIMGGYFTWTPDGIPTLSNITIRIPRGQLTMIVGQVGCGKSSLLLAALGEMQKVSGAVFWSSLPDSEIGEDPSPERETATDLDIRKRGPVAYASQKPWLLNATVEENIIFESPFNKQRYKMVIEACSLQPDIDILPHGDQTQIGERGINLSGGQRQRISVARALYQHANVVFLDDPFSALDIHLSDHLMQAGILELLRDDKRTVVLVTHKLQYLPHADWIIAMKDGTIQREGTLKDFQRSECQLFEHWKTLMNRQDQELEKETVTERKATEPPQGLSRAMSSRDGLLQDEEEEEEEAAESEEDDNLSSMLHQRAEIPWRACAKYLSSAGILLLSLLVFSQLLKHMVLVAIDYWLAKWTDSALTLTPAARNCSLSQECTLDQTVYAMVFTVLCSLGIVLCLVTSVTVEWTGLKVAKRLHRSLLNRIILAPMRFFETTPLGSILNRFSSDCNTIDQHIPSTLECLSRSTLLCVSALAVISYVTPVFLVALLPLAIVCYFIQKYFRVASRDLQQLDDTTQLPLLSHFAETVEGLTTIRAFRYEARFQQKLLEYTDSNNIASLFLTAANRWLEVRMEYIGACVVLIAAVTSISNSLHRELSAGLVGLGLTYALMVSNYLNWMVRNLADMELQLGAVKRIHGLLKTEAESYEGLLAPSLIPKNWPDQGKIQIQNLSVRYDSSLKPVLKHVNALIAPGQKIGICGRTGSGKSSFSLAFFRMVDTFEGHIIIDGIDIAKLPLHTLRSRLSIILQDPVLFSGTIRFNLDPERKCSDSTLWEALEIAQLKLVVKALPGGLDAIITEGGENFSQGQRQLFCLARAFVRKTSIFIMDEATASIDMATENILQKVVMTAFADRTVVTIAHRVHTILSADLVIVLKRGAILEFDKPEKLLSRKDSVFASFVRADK
Sequence of sulfonylurea receptor (Q14654 whole entry partner): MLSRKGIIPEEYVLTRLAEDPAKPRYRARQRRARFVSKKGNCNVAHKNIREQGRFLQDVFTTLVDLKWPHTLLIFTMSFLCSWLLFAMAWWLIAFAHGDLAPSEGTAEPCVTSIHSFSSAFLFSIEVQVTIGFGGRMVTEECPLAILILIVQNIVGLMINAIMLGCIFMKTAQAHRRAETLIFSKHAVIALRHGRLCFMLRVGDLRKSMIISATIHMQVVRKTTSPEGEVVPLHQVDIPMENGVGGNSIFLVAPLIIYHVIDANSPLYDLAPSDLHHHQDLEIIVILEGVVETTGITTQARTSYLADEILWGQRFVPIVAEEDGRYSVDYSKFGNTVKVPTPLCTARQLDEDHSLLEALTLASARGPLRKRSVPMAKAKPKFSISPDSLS

## CCCCNC(=O)NS(=O)(=O)c1ccc(C)cc1 [Tolbutamide]
[1]
  Duration of Action: 6 to 12 h

## CCC1=C(C)CN(C(=O)NCCc2ccc(S(=O)(=O)NC(=O)N[C@H]3CC[C@H](C)CC3)cc2)C1=O [Glimepiride]
[1]
  Duration of Action: 16 to 24 h

## NC(=O)c1cccnc1 [nicotinamide, Nicotinamide]
Pancreatic islets
  concentration of maximum recovery of glucose-induced insulin secretion: 25 mmol/L

## COc1ccc(Cl)cc1C(=O)NCCc1ccc(S(=O)(=O)NC(=O)NC2CCCCC2)cc1 [Glyburide]
Perfused rat hearts
  glycolytic flux and lactate production: dramatic increase

## [Cr] [Cr, Chromium]
[2]
  reduction of metformin requirements: more than one-half

## Cc1cnc(C(=O)NCCc2ccc(S(=O)(=O)NC(=O)NC3CCCCC3)cc2)cn1 [Glipizide]
[1]
  Duration of Action: 12 to 24 h
Sulfonylurea receptor
  concentration range that saturates receptors: low nM

## CN(C)C(=N)N=C(N)N [Metformin, metformin]
[3]
  frequency of lactic acidosis: 3 cases per 100,000 patient-years
  incidence of lactic acidosis: 0.03 /1,000 patient-years exposure

## O=C1O[C@H]([C@@H](O)CO)C(O)=C1O [ascorbate, ascorbic acid]
[4]
  decrease of cellular insulin glycation: 66-80%

## CC(=O)c1ccc(S(=O)(=O)NC(=O)NC2CCCCC2)cc1 [Acetohexamide]
[1]
  Duration of Action: 12 to 18 h

## CCCNC(=O)NS(=O)(=O)c1ccc(Cl)cc1 [Chlorpropamide]
[1]
  Duration of Action: 60 h

## O=S(=O)([O-])[O-].[O]=[V+2] [vanadyl sulfate]
[5]; 100 mg/day for 3 weeks
  time effects are sustained after discontinuation: up to 2 weeks
[5]; 100 mg/day, after 3 weeks
  hepatic and peripheral insulin sensitivity: appear to improve

## vitamin E
[6]
  insulin efficiency and fibrinolysis: may further worsen insulin efficiency and increase fibrinolysis

## COC1=C(OC)C(=O)C(C/C=C(\C)CC/C=C(\C)CC/C=C(\C)CC/C=C(\C)CC/C=C(\C)CC/C=C(\C)CC/C=C(\C)CC/C=C(\C)CC/C=C(\C)CCC=C(C)C)=C(C)C1=O [coenzyme Q10, Ubiquinone]
[7]
  HDL-cholesterol: increased
  systolic and diastolic blood pressure, fasting and 2-h plasma insulin, glucose, triglycerides, lipid peroxides, malondialdehyde and diene conjugates: all reduced
